What was measured:
[1] = tested on: PC3 cells; experiment: EB1 Comet (microtubule disruption) assay; type: cell-based, human; conditions: 1 hour treatment; for minimal effective concentration: Homo sapiens, PC-3, 1 h, read-out: EB1 pLAC (converted)
Summary of the method: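 Readout is loss of Eb1 plus-end foci, scored by immunofluorescence microscopy, in PC3 cells after 1 h compound treatment at 37 °C with 0.6% final DMSO. LAC is defined as the lowest concentration leaving at least 50% of cells without Eb1 foci.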

[2] = biological target: T1, Human PARP-1 enzyme (Homo sapiens, UniProt P09874); experiment: In vitro Scintillation Proximity Assay (SPA) for PARP-1 inhibitory activity; type: biochemical; conditions: read-out: in vitro SPA assay PARP-1 pIC50 (converted)
T1 construct: purchased Trevigen
Summary of the method: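 SPA assay: nicked-DNA-activated PARP-1 (0.1–0.2 μg/ml) ADP-ribosylates biotinylated histones (2 μg/ml) using [3H]-NAD+, 20 min at RT in Tris pH 8/DTT/MgCl2, stopped with 2 mM NAD+. Blank-subtracted cpm expressed as % control; IC50 by linear interpolation, reported as pIC50 (10−5 to 3×10−9 M tested).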

T1 sequence (P09874 whole entry): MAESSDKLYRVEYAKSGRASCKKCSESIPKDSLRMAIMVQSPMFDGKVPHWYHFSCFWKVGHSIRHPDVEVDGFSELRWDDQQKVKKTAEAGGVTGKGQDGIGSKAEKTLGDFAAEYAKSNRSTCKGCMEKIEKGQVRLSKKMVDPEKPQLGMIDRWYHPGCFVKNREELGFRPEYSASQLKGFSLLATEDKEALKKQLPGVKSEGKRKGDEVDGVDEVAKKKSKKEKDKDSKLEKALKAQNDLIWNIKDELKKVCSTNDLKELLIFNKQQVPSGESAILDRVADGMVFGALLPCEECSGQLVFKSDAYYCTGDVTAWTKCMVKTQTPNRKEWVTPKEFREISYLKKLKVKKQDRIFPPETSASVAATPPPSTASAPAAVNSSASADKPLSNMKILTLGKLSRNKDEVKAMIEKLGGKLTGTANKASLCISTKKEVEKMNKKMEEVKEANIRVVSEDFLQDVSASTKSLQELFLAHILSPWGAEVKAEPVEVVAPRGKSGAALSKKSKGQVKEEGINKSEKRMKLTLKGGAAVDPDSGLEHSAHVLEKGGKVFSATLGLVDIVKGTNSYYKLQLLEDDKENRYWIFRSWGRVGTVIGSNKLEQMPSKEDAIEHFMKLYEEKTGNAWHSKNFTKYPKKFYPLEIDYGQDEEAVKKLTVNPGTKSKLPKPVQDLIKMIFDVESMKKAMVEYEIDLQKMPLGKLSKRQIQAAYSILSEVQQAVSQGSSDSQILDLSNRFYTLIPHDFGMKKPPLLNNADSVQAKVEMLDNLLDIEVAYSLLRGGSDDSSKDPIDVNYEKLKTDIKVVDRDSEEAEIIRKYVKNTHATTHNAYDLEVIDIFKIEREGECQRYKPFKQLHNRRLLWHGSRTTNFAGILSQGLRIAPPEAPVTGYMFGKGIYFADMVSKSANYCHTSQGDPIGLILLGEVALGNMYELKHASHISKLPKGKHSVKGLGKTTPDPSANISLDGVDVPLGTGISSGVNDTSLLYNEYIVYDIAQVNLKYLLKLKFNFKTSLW

SMILES	IC50 [2]	minimal effective concentration [1]	EB1 pLAC [1]
CCc1cc2ccc(C(C)(C#N)Cc3cc(Cl)ccc3OC)cc2[nH]c1=O (stereo not shown) [Compound 80]	1000 nM	0.1 µM	–
CCc1cc2ccc(C(C)(C#N)Cc3cccc(Br)c3C)cc2[nH]c1=O (stereo not shown) [Compound 81]	1260 nM	0.316 µM	–
CCc1cc2ccc(C(C)(C#N)Cc3ccc(Cl)c(C(F)(F)F)c3)cc2[nH]c1=O (stereo not shown) [Compound 82]	3980 nM	1 µM	–
CCc1cc2ccc(C(C)(C#N)Cc3ccc(C)c(F)c3F)cc2[nH]c1=O (stereo not shown) [Compound 83]	631 nM	1 µM	–
CCc1cc2ccc(C(C)(C#N)Cc3c(C)cccc3C)cc2[nH]c1=O (stereo not shown) [Compound 84]	1260 nM	1 µM	–
CCc1cc2ccc(C(C)(C#N)Cc3nc4ccccc4o3)cc2[nH]c1=O (stereo not shown) [Compound 85]	126 nM	0.316 µM	–
CCc1cc2ccc(C(C)(C#N)Cc3csc(C)n3)cc2[nH]c1=O (stereo not shown) [Compound 86]	501 nM	3.16 µM	–
CCc1cc2ccc(C(C)(C#N)Cc3ccc4nccnc4c3)cc2[nH]c1=O (stereo not shown) [Compound 87]	79.4 nM	3.16 µM	–
CCc1cc2ccc(C(C)(C#N)Cc3cc(Cl)cc4c3OCOC4)cc2[nH]c1=O (stereo not shown) [Compound 90]	316 nM	1 µM	–
CCc1cc2ccc(C(C)(C#N)Cc3cc4c(cc3Cl)OCO4)cc2[nH]c1=O (stereo not shown) [Compound 91]	1260 nM	0.1 µM	–
CCc1cc2ccc(C(C)(C#N)Cc3cc(Cl)cc4c3OCOC4)cc2[nH]c1=O (stereo not shown) [Compound 92]	251 nM	–	6
CCc1cc2ccc(C(C)(C#N)Cc3cc(Cl)ccc3Cl)cc2[nH]c1=O (stereo not shown) [Compound 99]	1000 nM	0.1 µM	–
CCc1cc2ccc(C(C)(C#N)Cc3ccccc3C#N)cc2[nH]c1=O (stereo not shown) [Compound 101]	50.1 nM	1 µM	–
CCc1cc2ccc(C(C)(C#N)Cc3ccccc3OC(F)(F)F)cc2[nH]c1=O (stereo not shown) [Compound 102]	1580 nM	3.16 µM	–

More lines, main results first:

IC50 [2]	SMILES	minimal effective concentration [1]	EB1 pLAC [1]
1260 nM	CCc1cc2ccc(C(C)(C#N)Cc3ccccc3C(F)(F)F)cc2[nH]c1=O (stereo not shown) [Compound 103]	0.316 µM	–
251 nM	Cc1cc2ccc(C(C)(C#N)Cc3cc4ccccc4[nH]3)cc2[nH]c1=O (stereo not shown) [Compound 234]	> 10 µM	–
79.4 nM	CCc1cc2ccc(C(C)(C#N)Cc3ccc(F)c(C#N)c3)cc2[nH]c1=O (stereo not shown) [Compound 267]	0.1 µM	–
100 nM	CCc1cc2ccc(C(C)(C#N)CCOc3ccccc3F)cc2[nH]c1=O (stereo not shown) [Compound 278]	1 µM	–
79.4 nM	CCc1cc2ccc(C(C)(C#N)CCOc3ccc4c(c3)OCO4)cc2[nH]c1=O (stereo not shown) [Compound 279]	1 µM	–
79.4 nM	CCc1cc2ccc(C(C)(C#N)Cc3cc(OC)cc(OC)c3)cc2[nH]c1=O (stereo not shown) [Compound 332]	0.316 µM	–

Reference: US8778966B2, “Quinolinone derivatives as PARP and tank inhibitors” (Janssen Pharmaceutica, NV, priority 2007, dated 2014)
